In patent US9487511B2, “Cyclopropanamine compound and use thereof” (Takeda Pharmaceutical Company Limited, priority 2014, dated 2016):
Structures can show the parent of a compound that is named as a salt.

Columns and labels:
Type in all cases: biochemical
[1] = target: MAO-A enzyme (Homo sapiens (Human), UniProt P21397); experiment: Measurement of MAO-A inhibitory activity (MAO-Glo Assay)
Method: The MAO-A inhibitory activity evaluation described below followed the protocol of MAO-Glo (registered trademark) Assay of Promega KK.
A test compound dissolved in DMSO was added to a reaction solution (100 mM HEPES (pH 7.5), 5% glycerol) containing MAO-A enzyme (Sigma-Aldrich Co. LLC.), and the mixture was reacted at room temperature for 15 min. MAO substrate (Promega KK) was added to start the reaction. After reaction at room temperature for 60 min, Luciferine detection reagent (Promega KK) was added to terminate the reaction. After reaction at room temperature for 20 min with stirring, the luminescence was measured by Envision (PerkinElmer). The MAO-A inhibitory rate (%) of the test compound was calculated by the following formula. inhibitory rate (%)=(1−(test compound count−blank)÷(control−blank))×100
The count of the MAO-A enzyme reaction mixture under compound non-addition conditions is indicated as control, and the count under compound non-addition and MAO-A enzyme non-addition conditions is indicated as blank.

[2] = target: human LSD1(172-833) (Homo sapiens (Human), UniProt O60341); experiment: Measurement of LSD1 inhibitory activity (time-resolved fluorescence, biotin-histone H3 mono methylated K4 peptide); conditions: 60 min preincubation with enzyme at room temperature;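 further: after the compound–enzyme step, substrate reaction 5 min at room temperature in Tris-HCl pH 8.0 with BSA and DTT, halted by 2-PCPA, detected with europium anti-histone H3 antibody plus Streptavidin-XL665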
Method: A test compound dissolved in DMSO was added by to a reaction solution (50 mM Tris-HCl (pH 8.0), 0.1% BSA, 1 mM DTT) containing LSD1 enzyme, and the mixture was reacted at room temperature for 60 min. […] After reaction at room temperature for 5 min, 2-PCPA solution was added to terminate the reaction. A detection solution (800 mM potassium fluoride, 0.1% BSA) containing europium-labeled anti-histone H3 antibody (Wako Pure Chemical Industries, Ltd.) and Streptavidin-XL665 (Cisbio) was further added, and the mixture was left standing for 60 min. […] The LSD1 inhibitory rate (%) of the test compound was calculated by the following formula. inhibitory rate (%)=(1−(test compound count−blank)÷(control−blank))×100
The count of the LSD1 enzyme reaction mixture under compound non-addition conditions is indicated as control, and the count under compound non-addition and LSD1 enzyme non-addition conditions is indicated as blank. A concentration necessary for achieving 50% inhibitory rate was taken as ICH value.

[3] = target: MAO-B enzyme (Homo sapiens (Human), UniProt P27338); experiment: Measurement of MAO-B inhibitory activity (MAO-Glo Assay)
Sequence of MAO-B enzyme (P27338 whole entry): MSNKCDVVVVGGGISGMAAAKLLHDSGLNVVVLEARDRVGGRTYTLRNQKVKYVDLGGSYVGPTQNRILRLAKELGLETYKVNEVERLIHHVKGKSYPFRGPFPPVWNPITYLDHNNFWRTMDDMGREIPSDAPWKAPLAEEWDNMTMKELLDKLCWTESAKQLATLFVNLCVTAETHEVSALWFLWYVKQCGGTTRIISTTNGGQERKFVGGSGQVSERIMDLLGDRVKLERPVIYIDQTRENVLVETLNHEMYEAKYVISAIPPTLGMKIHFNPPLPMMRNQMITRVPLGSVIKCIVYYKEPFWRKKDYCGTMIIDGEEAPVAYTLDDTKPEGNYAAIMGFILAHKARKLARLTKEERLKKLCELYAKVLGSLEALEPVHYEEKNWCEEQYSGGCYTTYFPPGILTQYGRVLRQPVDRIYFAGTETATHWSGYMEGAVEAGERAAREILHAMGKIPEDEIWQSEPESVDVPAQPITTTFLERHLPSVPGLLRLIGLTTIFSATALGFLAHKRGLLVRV
Method: The MAO-B inhibitory activity evaluation described below followed the protocol of MAO-Glo (registered trademark) Assay of Promega KK.
A test compound dissolved in DMSO was added to a reaction solution (100 mM HEPES (pH 7.5), 5% glycerol, 10% DMSO) containing MAO-B enzyme (Sigma-Aldrich Co. LLC.), and the mixture was reacted at room temperature for 15 min. MAO substrate (Promega KK) was added to start the reaction. After reaction at room temperature for 60 min, Luciferine detection reagent (Promega KK) (50 μL) was added to terminate the reaction. After reaction at room temperature for 20 min with stirring, the luminescence was measured by Envision (PerkinElmer). The MAO-B inhibitory rate (%) of the test compound was calculated by the following formula. inhibitory rate (%)=(1−(test compound count−blank)÷(control−blank))×100
The count of the MAO-B enzyme reaction mixture under compound non-addition conditions is indicated as control, and the count under compound non-addition and MAO-B enzyme non-addition conditions is indicated as blank.

Sequence of MAO-A enzyme (P21397 whole entry): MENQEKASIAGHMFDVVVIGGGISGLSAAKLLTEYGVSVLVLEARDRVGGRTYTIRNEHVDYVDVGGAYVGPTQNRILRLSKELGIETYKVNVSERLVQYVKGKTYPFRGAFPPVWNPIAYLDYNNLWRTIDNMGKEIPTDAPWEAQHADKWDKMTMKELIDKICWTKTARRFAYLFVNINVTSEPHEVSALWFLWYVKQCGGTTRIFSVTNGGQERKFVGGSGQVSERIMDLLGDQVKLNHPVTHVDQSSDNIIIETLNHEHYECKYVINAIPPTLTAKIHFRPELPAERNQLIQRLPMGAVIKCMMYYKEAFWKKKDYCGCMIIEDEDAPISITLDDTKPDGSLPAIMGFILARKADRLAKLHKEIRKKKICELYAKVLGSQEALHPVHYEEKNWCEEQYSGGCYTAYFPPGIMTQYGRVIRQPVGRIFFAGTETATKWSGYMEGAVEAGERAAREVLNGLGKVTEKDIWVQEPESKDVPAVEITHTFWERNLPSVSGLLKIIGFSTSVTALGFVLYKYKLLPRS

Compound | IC50 [1] | IC50 [2] | IC50 [3]
O=C(NC1CCN(CC(F)(F)F)CC1)c1csc([C@@H]2C[C@H]2NCC2CCOCC2)c1 [Example 52, 5-((1R,2R)-2-((tetrahydro-2H-pyran-4-ylmethyl)amino)cyclopropyl)-N-(1-(2,2,2-trifluoroethyl)piperidin-4-yl)thiophene-3-carboxamide hydrochloride] | > 100 µM | < 0.1 µM | > 100 µM
Cc1nnc(NC(=O)c2cc([C@@H]3C[C@H]3NCC3CC3)sc2C)s1 (relative stereo) [Example 69, 5-(trans-2-((cyclopropylmethyl)amino)cyclopropyl)-2-methyl-N-(5-methyl-1,3,4-thiadiazol-2-yl)thiophene-3-carboxamide dihydrochloride] | 33 µM | < 0.1 µM | > 100 µM
Cc1nnc(NC(=O)c2cc([C@@H]3C[C@H]3NCC3CCOCC3)cs2)s1 (relative stereo) [Example 58, N-(5-methyl-1,3,4-thiadiazol-2-yl)-4-(trans-2-((tetrahydro-2H-pyran-4-ylmethyl)amino)cyclopropyl)thiophene-2-carboxamide hydrochloride] | > 100 µM | < 0.1 µM | > 100 µM
O=C(NC1CCC(F)(F)CC1)c1csc([C@@H]2C[C@H]2NCC2CCOCC2)c1 [Example 51, N-(4,4-difluorocyclohexyl)-5-((1R,2R)-2-((tetrahydro-2H-pyran-4-ylmethyl)amino)cyclopropyl)thiophene-3-carboxamide hydrochloride] | > 100 µM | < 0.1 µM | > 100 µM
Cc1nnc(NC(=O)c2csc([C@@H]3C[C@H]3NC3CCN(C4CC4)CC3)c2)s1 [Example 48, 5-((1R,2R)-2-((1-cyclopropylpiperidin-4-yl)amino)cyclopropyl)-N-(5-methyl-1,3,4-thiadiazol-2-yl)thiophene-3-carboxamide dihydrochloride] | 31 µM | < 0.1 µM | > 100 µM
Cc1nnc(NC(=O)c2csc([C@@H]3C[C@H]3NCC3CCN(CCC(=O)O)CC3)c2)s1 [Example 60, 3-(4-((((1R,2R)-2-(4-((5-methyl-1,3,4-thiadiazol-2-yl)carbamoyl)-2-thienyl)cyclopropyl)amino)methyl)piperidin-1-yl)propanoic acid trihydrochloride] | > 100 µM | < 0.1 µM | > 100 µM
Cc1sc([C@@H]2C[C@H]2NCC2CC2)cc1C(=O)NC1CCC(F)(F)CC1 (relative stereo) [Example 65, 5-(trans-2-((cyclopropylmethyl)amino)cyclopropyl)-N-(4,4-difluorocyclohexyl)-2-methylthiophene-3-carboxamide hydrochloride] | 25 µM | < 0.1 µM | > 100 µM
Cc1nnc(NC(=O)c2cc([C@@H]3C[C@H]3NCC3CCOCC3)cc3ccccc23)s1 (relative stereo) [Example 16, N-(5-methyl-1,3,4-thiadiazol-2-yl)-3-(trans-2-((tetrahydro-2H-pyran-4-ylmethyl)amino)cyclopropyl)-1-naphthamide dihydrochloride] | > 100 µM | < 0.1 µM | > 100 µM
Cc1nnc(NC(=O)c2cc([C@@H]3C[C@H]3NCC3CCOCC3)sc2C)s1 (relative stereo) [Example 70, 2-methyl-N-(5-methyl-1,3,4-thiadiazol-2-yl)-5-(trans-2-((tetrahydro-2H-pyran-4-ylmethyl)amino)cyclopropyl)thiophene-3-carboxamide dihydrochloride] | 10 µM | < 0.1 µM | 23 µM
O=C(O)c1ccc(CN2CCC(CN[C@@H]3C[C@H]3c3cc(C(=O)NC4CCC(F)(F)CC4)cs3)CC2)cc1 [Example 101, 4-((4-((((1R,2R)-2-(4-((4,4-difluorocyclohexyl)carbamoyl)-2-thienyl)cyclopropyl)amino)methyl)piperidin-1-yl)methyl)benzoic acid dihydrochloride] | > 100 µM | < 0.1 µM | > 100 µM
O=C(NC1CCC(F)(F)CC1)c1csc([C@@H]2C[C@H]2NCC2CCOCC2)c1 (relative stereo) [Example 24, N-(4,4-difluorocyclohexyl)-5-(trans-2-((tetrahydro-2H-pyran-4-ylmethyl)amino)cyclopropyl)thiophene-3-carboxamide hydrochloride] | > 100 µM | < 0.1 µM | > 100 µM
Cc1nnc(NC(=O)c2csc([C@@H]3C[C@H]3NC3CCOCC3)c2)s1 [Example 49, N-(5-methyl-1,3,4-thiadiazol-2-yl)-5-((1R,2R)-2-(tetrahydro-2H-pyran-4-ylamino)cyclopropyl)thiophene-3-carboxamide hydrochloride] | > 100 µM | < 0.1 µM | > 100 µM
O=C(NC1CCOCC1)c1csc([C@@H]2C[C@H]2NC2CCC(F)(F)CC2)c1 [Example 47, 5-((1R,2R)-2-((4,4-difluorocyclohexyl)amino)cyclopropyl)-N-(tetrahydro-2H-pyran-4-yl)thiophene-3-carboxamide hydrochloride] | > 100 µM | < 0.1 µM | > 100 µM
CCn1cc(NC(=O)c2csc([C@@H]3C[C@H]3NCC3CCOCC3)c2)cn1 [Example 86, N-(1-ethyl-1H-pyrazol-4-yl)-5-((1R,2R)-2-((tetrahydro-2H-pyran-4-ylmethyl)amino)cyclopropyl)thiophene-3-carboxamide dihydrochloride] | 87 µM | < 0.1 µM | > 100 µM
Cn1cc(NC(=O)c2csc([C@@H]3C[C@H]3NC3CCC3)c2)cn1 (relative stereo) [Example 34, 5-(trans-2-(cyclobutylamino)cyclopropyl)-N-(1-methyl-1H-pyrazol-4-yl)thiophene-3-carboxamide hydrochloride] | > 100 µM | < 0.1 µM | > 100 µM
O=C(NC1CCCC1)c1csc(C2CC2NC2CCOCC2)c1 (single isomer, unassigned) [Example 38, hydrochloride] | > 100 µM | < 0.1 µM | > 100 µM
